From patent publication US10676429B2, “Sulfamoyl-arylamides and the use thereof as medicaments for the treatment of hepatitis B” (priority 2012, dated 2020)

Columns and labels:
HBV [1] = experiment: Anti-HBV activity in HepG2.117 cell line (Tet-off, intracellular HBV DNA, realtime PCR); type: cell-based; details: HepG2.117 cells, 3 days of treatment, intracellular HBV DNA, read-out: HepG2 117 EC50
[2] = Cytotoxicity in HepG2 cells, 4 days, Resazurin assay; details: human, HepG2 cells
HBV [3] = experiment: Anti-HBV activity in stable transfected HepG2.2.15 cell line (HBV DNA from secreted virions, realtime PCR); type: cell-based; details: HepG2.2.15 cells, 6 days of treatment, secreted virion HBV DNA, read-out: HepG2 2.15 EC50
[4] = Hepatitis B virus, HepG2.117, 72 h
[5] = Hepatitis B virus, HepG2.2.15, 144 h

| Structure (SMILES) | EC50 (HBV [1]; [4]) | CC50 at 4 days [2] | EC50 (HBV [3]; [5]) | EC50 (HBV [3]) | EC50 (HBV [1]) |
| --- | --- | --- | --- | --- | --- |
| CC1(NS(=O)(=O)c2ccc(Br)c(C(=O)Nc3ccc(F)c(C#N)c3)c2F)COC1 [Compound 214] | > 1000 nM | > 25000 nM |  |  |  |
| Cc1cc(NC(=O)c2cccc(S(=O)(=O)N[C@@H]3CCOC3)c2)ccc1F [Compound 129] | 780 nM | > 25000 nM | 350 nM |  |  |
| Cc1cc(NC(=O)c2cccc(S(=O)(=O)NC3CN(C(=O)OC(C)(C)C)C3)c2)ccc1F [Compound 182] | 880 nM | > 25000 nM | 310 nM |  |  |
| Cc1cc(NC(=O)c2cccc(S(=O)(=O)NC3CCN(C)C3=O)c2)ccc1F (stereo not shown) [Compound 181] | 2040 nM | > 25000 nM | 2590 nM |  |  |
| O=C(Nc1cccc(C(F)(F)F)c1)c1cc(S(=O)(=O)NC2CCCCC2)ccc1F [Compound 7] | 560 nM | 11400 nM | 660 nM |  |  |
| O=C(Nc1ccccc1)c1ccnc(S(=O)(=O)NC2CCCCC2)c1 [Compound 66] | 14500 nM | > 100000 nM | 4270 nM |  |  |
| COC(=O)N1CCCC(NS(=O)(=O)c2cccc(C(=O)Nc3ccc(F)c(C)c3)c2)C1 (racemic) [Compound 159] |  | > 25000 nM | 150 nM |  |  |
| Cc1cc(NC(=O)c2cccc(S(=O)(=O)NC3CCCC(O)C3)c2)ccc1F (single isomer, unassigned) [Compound 134a, N-(4-fluoro-3-methyl-phenyl)-3-[[(1R,3S)-3-hydroxycyclohexyl]sulfamoyl]benzamide or N-(4-fluoro-3-methyl-phenyl)-3-[[(1S,3R)-3-hydroxycyclohexyl]sulfamoyl]benzamide] |  |  |  | 660 nM | 720 nM |
| Cc1ccc(S(=O)(=O)NC2(C)COC2)cc1C(=O)Nc1ccc(F)c(C(F)(F)F)c1 [Compound 238] | 500 nM | > 25000 nM | 610 nM |  |  |
| Cc1cc(NC(=O)c2cccc(S(=O)(=O)NC3(C)COC3)c2F)ccc1F [Compound 222] | 100 nM | > 25000 nM | 50 nM |  |  |
| Cc1cc(NC(=O)c2cccc(S(=O)(=O)N[C@@H]3CCCC[C@@H]3O)c2)ccc1F (racemic) [Compound 132] | 730 nM | > 25000 nM | 590 nM |  |  |
| Cc1cc(NC(=O)c2cccc(S(=O)(=O)N[C@H]3c4ccccc4C[C@H]3O)c2)ccc1F [Compound 177] | 720 nM | > 25000 nM | 770 nM |  |  |
| Cc1cc(NC(=O)c2cccc(S(=O)(=O)N[C@H](C)[C@H](O)c3ccccc3)c2)ccc1F [Compound 142] | 560 nM | > 25000 nM | 140 nM |  |  |
| O=C(Nc1ccccc1)c1cc(S(=O)(=O)N2CCCCC2)cs1 [Compound 59] | 19300 nM | 46700 nM | 12800 nM |  |  |
| O=C(Nc1ccc(F)c(F)c1)c1c(F)ccc(S(=O)(=O)N[C@H]2CCOC2)c1F [Compound 196] | 70 nM | > 25000 nM | 130 nM |  |  |
| CC1(NS(=O)(=O)c2cccc(C(=O)Nc3ccc(F)c(C(F)(F)F)c3)c2F)COC1 [Compound 219] | 460 nM | > 25000 nM |  |  |  |
| Cc1cc(NC(=O)c2c(C)ccc(S(=O)(=O)NC3(C)COC3)c2F)ccc1F [Compound 204] | 90 nM | > 25000 nM |  |  |  |
| CC1(NS(=O)(=O)c2ccc(Cl)c(C(=O)Nc3cc(F)c(F)c(Cl)c3)c2F)COC1 [Compound 210] | 460 nM | > 25000 nM |  |  |  |
| O=C(Nc1ccccc1)c1csc(S(=O)(=O)NC2CCCCC2)n1 [Compound 64] | 7830 nM | > 25000 nM |  |  |  |
| Cc1ccc(S(=O)(=O)NC(C)(C)C)c(F)c1C(=O)Nc1ccc(F)c(F)c1 [Compound 206] | 640 nM | > 25000 nM |  |  |  |
| O=C(Nc1ccc(F)c(Br)c1)c1c(F)ccc(S(=O)(=O)N[C@H]2CCOC2)c1F [Compound 198] | 150 nM | > 25000 nM |  |  |  |
| CC1(NS(=O)(=O)c2ccc(F)c(C(=O)Nc3ccc(F)c(C(F)(F)F)c3)c2Br)COC1 [Compound 212] | 7300 nM | > 25000 nM |  |  |  |
| Cc1ccc(S(=O)(=O)N[C@H]2CCOC2)c(F)c1C(=O)Nc1ccc(F)c(F)c1 [Compound 188] | 240 nM | > 25000 nM |  |  |  |
| N#Cc1cc(NC(=O)c2c(F)ccc(S(=O)(=O)N[C@H]3CCOC3)c2F)ccc1F [Compound 199] | 430 nM | > 25000 nM |  |  |  |
| Cc1cc(NC(=O)c2c(Cl)ccc(S(=O)(=O)NC3(C)COC3)c2F)cc(F)c1F [Compound 209] | 150 nM | > 25000 nM |  |  |  |
| Cc1cc(NC(=O)c2c(C)ccc(S(=O)(=O)N[C@H]3CCOC3)c2F)ccc1F [Compound 189] | 350 nM | > 25000 nM |  |  |  |

| Structure (SMILES) | EC50 (HBV [1]; [4]) | CC50 at 4 days [2] | EC50 (HBV [3]; [5]) | EC50 (HBV [3]) | EC50 (HBV [1]) |
| --- | --- | --- | --- | --- | --- |
| Cc1cc(NC(=O)c2c(Br)ccc(S(=O)(=O)NC3(C)COC3)c2F)cc(F)c1F [Compound 216] | 290 nM | > 25000 nM |  |  |  |
| O=C(Nc1ccc(F)c(C(F)(F)F)c1)c1c(F)ccc(S(=O)(=O)N[C@H]2CCOC2)c1F [Compound 200] | 450 nM | > 25000 nM |  |  |  |
| CC1(NS(=O)(=O)c2ccc(Cl)c(C(=O)Nc3ccc(F)c(C(F)(F)F)c3)c2F)COC1 [Compound 208] | > 1000 nM | > 25000 nM |  |  |  |
| Cc1cc(NC(=O)c2c(F)ccc(S(=O)(=O)N[C@H]3CCOC3)c2F)ccc1F [Compound 197] | 90 nM | > 25000 nM |  |  |  |
| COC(=O)N1CCCC(NS(=O)(=O)c2cccc(C(=O)Nc3ccc(F)c(C)c3)c2)C1 (racemic) [Compound 159b] |  |  |  | 160 nM | 230 nM |
| CC(C)NS(=O)(=O)c1ccc(F)c(C(=O)Nc2ccc(F)c(F)c2)c1F [Compound 202] | 110 nM | > 25000 nM |  |  |  |
| Cc1cc(NC(=O)c2c(C)c(Br)cc(S(=O)(=O)NC3(C)COC3)c2F)ccc1F [Compound 190] | 270 nM | > 25000 nM |  |  |  |
| Cc1cc(NC(=O)c2c(Br)ccc(S(=O)(=O)NC3(C)COC3)c2F)ccc1F [Compound 213] | 280 nM | > 25000 nM |  |  |  |
| Cc1cc(NC(=O)c2cccc(S(=O)(=O)NC(C)(C)C)c2F)ccc1F [Compound 221] | 130 nM | > 25000 nM |  |  |  |
| Cc1cc(NC(=O)c2cccc(S(=O)(=O)NC3CC(=O)N(C)C3)c2)ccc1F (racemic) [Compound 179] |  | > 25000 nM |  |  |  |
| Cc1cc(NC(=O)c2cccc(S(=O)(=O)NC3CCCC(O)C3)c2)ccc1F (stereo not shown) [Compound 134] |  | > 25000 nM |  |  | 570 nM |
| CC1(NS(=O)(=O)c2cccc(C(=O)Nc3ccc(F)cc3)c2)CCOCC1 [Compound 83] | 1230 nM |  | 1040 nM |  |  |
| Cc1cc(NC(=O)c2c(C)ccc(S(=O)(=O)NC(C)(C)C)c2F)ccc1F [Compound 205] | 350 nM | > 25000 nM |  |  |  |
| Cc1cc(NC(=O)c2cccc(S(=O)(=O)NC3CCCC(O)C3)c2)ccc1F (single isomer, unassigned) [Compound 134c, N-(4-fluoro-3-methyl-phenyl)-3-[[(1R,3R)-3 hydroxycyclohexyl]sulfamoyl]benzamide or N-(4-fluoro-3-methyl-phenyl)-3-[[(1S,3S)-3-hydroxycyclohexyl]sulfamoyl]benzamide] |  |  |  | 490 nM | 380 nM |
| Cc1ccc(S(=O)(=O)NC2(C)COC2)c(F)c1C(=O)Nc1cc(F)c(F)c(Cl)c1 [Compound 192] | 190 nM | > 25000 nM |  |  |  |
| Cc1cc(NC(=O)c2cccc(S(=O)(=O)NC3CCCC(O)C3)c2)ccc1F (single isomer, unassigned) [Compound 134d, N-(4-fluoro-3-methyl-phenyl)-3-[[(1R,3R)-3 hydroxycyclohexyl]sulfamoyl]benzamide or N-(4-fluoro-3-methyl-phenyl)-3-[[(1S,3S)-3-hydroxycyclohexyl]sulfamoyl]benzamide] |  |  |  | 250 nM | 1220 nM |
| CC1(NS(=O)(=O)c2ccc(Br)c(C(=O)Nc3ccc(F)c(C(F)(F)F)c3)c2F)COC1 [Compound 215] | > 1000 nM | > 25000 nM |  |  |  |
| Cc1cc(NC(=O)c2cccc(S(=O)(=O)NC3(C)CCOC3)c2)ccc1F (stereo not shown) [Compound 223] | 210 nM | > 25000 nM |  |  |  |
| CC1(NS(=O)(=O)c2ccc(F)c(C(=O)Nc3ccc(F)c(F)c3)c2Cl)COC1 [Compound 211] | 650 nM | > 25000 nM |  |  |  |
| Cc1c(Br)cc(S(=O)(=O)N[C@H]2CCOC2)c(F)c1C(=O)Nc1ccc(F)c(F)c1 [Compound 187] | 950 nM | > 25000 nM |  |  |  |
| Cc1cc(NC(=O)c2cc(S(=O)(=O)NC3(C)COC3)ccc2Cl)ccc1F [Compound 232] | 310 nM | > 25000 nM |  |  |  |
| Cc1ccc(S(=O)(=O)N[C@H](C)C(F)(F)F)c(F)c1C(=O)Nc1cc(F)c(F)c(Cl)c1 [Compound 193] | 100 nM | 13500 nM |  |  |  |
| Cc1cc(NC(=O)c2cccc(S(=O)(=O)NC3CCCC(O)C3)c2)ccc1F (single isomer, unassigned) [Compound 134b, N-(4-fluoro-3-methyl-phenyl)-3-[[(1R,3S)-3-hydroxycyclohexyl]sulfamoyl]benzamide or N-(4-fluoro-3-methyl-phenyl)-3-[[(1S,3R)-3-hydroxycyclohexyl]sulfamoyl]benzamide] |  |  |  | 570 nM | 200 nM |
| CC(C)NS(=O)(=O)c1ccc(F)c(C(=O)Nc2cccc(C(F)(F)F)c2)c1F [Compound 203] | 240 nM | 16700 nM |  |  |  |
| CC1(NS(=O)(=O)c2ccc(Cl)c(C(=O)Nc3ccc(F)c(C#N)c3)c2F)COC1 [Compound 207] | > 1000 nM | > 25000 nM |  |  |  |
| COC(=O)N1CCCC(NS(=O)(=O)c2cccc(C(=O)Nc3ccc(F)c(C)c3)c2)C1 (racemic) [Compound 159a] |  |  |  | 170 nM | 860 nM |
